Source: patent publication US20240024403A1, “Compositions and Methods for Managing Weight” (Unigen, Inc., priority 2012, published 2024)

Assays:
[1] = High fat diet induced obesity (DIO) rat model; type: in vivo, Spraue-Dawley rats; settings: for Total Body Weight: in g (unit assumed)
Experimental: Male Spraue-Dawley rats, age 4-6 weeks (OrientBio, Inc.; Seongnam, Korea) were housed individually in Polycarbonate cages in a room with a 12 hr:12 hr light-dark cycle and an ambient temperature of 24° C. All the rats were fed a commercial chow diet for 1 week after arrival in the animal facility. Rats were then divided into normal and obesity groups and fed with normal diet (ND) and high fat diets (HFD) respectively. The HFD group was divided into multiple treatment groups: a high fat diet vehicle group (HFD), an orlistat (purchased as OTC drug Alli®) positive control treatment group (ORI, 80 mg/kg of animal weight, 2 times/day). In some examples, sibutramine was used as a positive control (SIB, 3 mg/kg for rat studies and […] for mice studies).
Body weight was measured once or twice per week and feed intake was measured twice per week. Body weight gain was determined for each study group by measurement of the body weight difference for each study group between each successive week of the study. At the end of the experimental period, following a 12-h fasting period, the animals were anesthetized with ether, and blood was drawn from the abdominal vein. Liver and kidney and adipose tissues (epididymal, retroperitoneal, perirenal adipose tissues) were removed from each animal, rinsed with physiological saline, and weighted. Serum concentrations of glucose, total cholesterol and LDL-cholesterol were determined using automatic analyzer (INTEGRA 400, Roche, Germany). Statistical significance of test results was performed by Student's t-test.

[2] = tested on: leptin; test: Plasma leptin level in DIO mice (ELISA); type: in vivo
Experimental: (§1) Obese mice were treated with various three component compositions to test the anti-obesity and appetite effects of such compositions. Three component Composition 1 (Magnolia:Morus:Yerba Mate) produced according to the Example 38, three component Composition 2 (Magnolia:Morus:Mutamba) produced according to the Example 42, three component Composition 3 (Morus: Rosemary:Yerba Mate) produced according to the Example 39, and three component Composition 9 (Morus:Rosemary:Areca) produced according to the Example 41, were each separately administrated orally to DIO mice as described in the Example 48. The high fat diet (HFD) mice were divided into multiple treatment groups with a total of 10 animals per group. The mice were treated with one of the following: Composition 1 (1300 mg/kg/day), Composition 2 (1300 mg/kg/day), Composition 3 (1700 mg/kg/day), or Composition 9 (1700 mg/kg/day). Control groups included a normal diet group given vehicle only (ND, negative control), a high fat diet group given vehicle only (HFD, negative control), an orlistat group (ORI, 40 mg/kg, 2 times/day, positive control), and a sibutramine group (10 mg/kg, 1 time/day, positive control). Body weight and feed intake were measured daily for 2 weeks after treatment and then twice a week until the end of the 7 week study. At week 2 and week 7 after treatment, mice were fasted for 16 hours and then five animals were examined to measure plasma concentrations of leptin and ghrelin. Leptin and ghrelin levels were measured by using commercial ELISA kits specific for leptin or ghrelin (Millipore Co., Billerica, MA) according to the manufacturer's instructions. Measurements were taken using a microplate reader (Victor™ X3, PerkinElmer Inc., USA) and analyzed with PerkinElmer 2030 workstation computer software.

[3] = tested on: ghrelin; test: Plasma active ghrelin level in DIO mice (ELISA); type: in vivo
Experimental: as §1

[4] = SIB 3 mg/kg, DIO rats, blood at end of study
[5] = SIB 3 mg/kg, rats fed a high fat diet
[6] = SIB 3 mg/kg, rats fed a high fat diet, 42 days
[7] = DIO mice plasma, 2-week treatment
[8] = DIO mice plasma, 7-week treatment

Structure (SMILES): CC(C)CC(N(C)C)C1(c2ccc(Cl)cc2)CCC1 (stereo not shown) [SIB, sibutramine]
- Fasting Glucose [1, 4]: 136.00 mg/dL
- T-chol [1, 4]: 106.60 mg/dL
- Triglyceride [1, 4]: 41.10 mg/dL
- Fat Deposit Weight: Epididymal Fat [1, 5]: 6.698
- Fat Deposit Weight: Perirenal Fat [1, 5]: 1.562
- Fat Deposit Weight: Retroperitoneal Fat [1, 5]: 3.190
- Fat Deposit Weight: Total Fat [1, 5]: 11.450
- Food Efficiency Ratio (FER) [1, 6]: 0.155
- Food Intake [1, 6]: 13.880 g/day
- Weight Gain [1, 6]: 2.160 g/day
- Total Body Weight ([1]; day 0, SIB 3 mg/kg, DIO rats): 364.15
- Total Body Weight ([1]; day 1, SIB 3 mg/kg, DIO rats): 368.06
- Weight Gain ([1]; day 1 vs day 0, SIB 3 mg/kg, DIO rats): 3.91
- Total Body Weight ([1]; day 2, SIB 3 mg/kg, DIO rats): 356.78
- Weight Gain ([1]; day 2 vs day 0, SIB 3 mg/kg, DIO rats): −7.37
- Total Body Weight ([1]; day 3, SIB 3 mg/kg, DIO rats): 357.21
- Weight Gain ([1]; day 3 vs day 0, SIB 3 mg/kg, DIO rats): −6.94
- Total Body Weight ([1]; day 4, SIB 3 mg/kg, DIO rats): 358.78
- Weight Gain ([1]; day 4 vs day 0, SIB 3 mg/kg, DIO rats): −5.37
- Total Body Weight ([1]; day 7, SIB 3 mg/kg, DIO rats): 368.11
- Weight Gain ([1]; day 7 vs day 0, SIB 3 mg/kg, DIO rats): 3.96
- Total Body Weight ([1]; day 10, SIB 3 mg/kg, DIO rats): 377.69
- Weight Gain ([1]; day 10 vs day 0, SIB 3 mg/kg, DIO rats): 13.54
- Total Body Weight ([1]; day 14, SIB 3 mg/kg, DIO rats): 388.70
- Weight Gain ([1]; day 14 vs day 0, SIB 3 mg/kg, DIO rats): 24.55
- Total Body Weight ([1]; day 18, SIB 3 mg/kg, DIO rats): 395.38
- Weight Gain ([1]; day 18 vs day 0, SIB 3 mg/kg, DIO rats): 31.23
- Total Body Weight ([1]; day 21, SIB 3 mg/kg, DIO rats): 407.06
- Weight Gain ([1]; day 21 vs day 0, SIB 3 mg/kg, DIO rats): 42.91
- Total Body Weight ([1]; day 24, SIB 3 mg/kg, DIO rats): 414.91
- Weight Gain ([1]; day 24 vs day 0, SIB 3 mg/kg, DIO rats): 50.75
- Total Body Weight ([1]; day 28, SIB 3 mg/kg, DIO rats): 425.99
- Weight Gain ([1]; day 28 vs day 0, SIB 3 mg/kg, DIO rats): 61.84
- Total Body Weight ([1]; day 31, SIB 3 mg/kg, DIO rats): 432.32
- Weight Gain ([1]; day 31 vs day 0, SIB 3 mg/kg, DIO rats): 68.17
- Total Body Weight ([1]; day 35, SIB 3 mg/kg, DIO rats): 442.55
- Weight Gain ([1]; day 35 vs day 0, SIB 3 mg/kg, DIO rats): 78.40
- Total Body Weight ([1]; day 38, SIB 3 mg/kg, DIO rats): 447.66
- Weight Gain ([1]; day 38 vs day 0, SIB 3 mg/kg, DIO rats): 83.51
- Total Body Weight ([1]; day 42, SIB 3 mg/kg, DIO rats): 454.96
- Weight Gain ([1]; day 42 vs day 0, SIB 3 mg/kg, DIO rats): 90.81
- blood biochemistry parameters vs HFD group ([1]; sibutramine 3 mg/kg): no statistically significant changes compared to the HFD group for any of the measured endpoints
- body weight gain vs HFD group ([1]; sibutramine 3 mg/kg): statistically significant decreases in body weight gains from day 2 to completion of the study on day 42
- organ and fat pad weights vs HFD group ([1]; sibutramine 3 mg/kg): statistically significant decreases in all categories of fat measurement
- total body weight vs HFD group ([1]; sibutramine 3 mg/kg): statistically significant reduction in body weight at day 2 through the remainder of the study (day 42)
- weight gain per day, food intake per day, food efficiency ratio (FER) vs HFD group ([1]; sibutramine 3 mg/kg): statically lower values than the HFD group for Weight Gain per day, Food Intake per day, and Food Efficiency Ratio
- Leptin (ng/ml) 2-week [2, 7]: 17.0 ± 0.43 ng/mL
- Leptin (ng/ml) 7-week [2, 8]: 20.4 ± 0.00 ng/mL
- plasma leptin level vs HFD group ([2]; week 2 and week 7, Composition 2 1300 mg/kg/day, orlistat 40 mg/kg 2 times/day, sibutramine 10 mg/kg 1 time/day): somewhat reduced leptin level after 2 weeks of treatment
- Active Ghrelin (pg/ml) 2-week [3, 7]: 1001.3 pg/mL
- Active Ghrelin (pg/ml) 7-week [3, 8]: 600.1 pg/mL
- active ghrelin level vs HFD group ([3]; week 2 and week 7, orlistat 40 mg/kg 2 times/day, sibutramine 10 mg/kg 1 time/day): no effect on active ghrelin levels at either week 2 or week 7
